{"source": "patent US20100016213A1", "about": "“USE OF A DITERPENOID COMPOUND FOR TREATING DIABETES” (National Taiwan University, priority 2008, published 2010)", "type_in_all_cases": "in vivo", "key": {"[1]": {"system": "Diet-induced diabetic (NIDDM) mice", "experiment": "Plasma insulin levels before and after treatment (Insulin ELISA), diet-induced diabetic mice", "conditions": "for Plasma insulin, Pre-treatment: before treatment; for Plasma insulin, post-treatment: one hour after treatment", "procedure": "(§1) Normal mice, STZ-induced diabetic mice, and diet-induced diabetic mice were administered with a vehicle control, borapetoside A (5.0 mg/kg), borapetoside C (at various doses), glibenclamide (5.0 mg/kg) or metformin (500 mg/kg) by intraperitoneal injection. These mice were examined for their blood insulin levels before and one hour after treatment, using the Insulin(Rat) ELISA kit obtained from Penisula Lab. Inc., San Carlos, Calif., USA."}, "[2]": {"system": "normal mice", "experiment": "Plasma insulin levels before and after treatment (Insulin ELISA), normal mice", "conditions": "for Plasma insulin, Pre-treatment: before treatment; for Plasma insulin, post-treatment: one hour after treatment", "procedure": "as §1"}, "[3]": {"system": "Diet-induced diabetic mice (NIDDM)", "experiment": "Lowering plasma glucose levels via oral administration, diet-induced diabetic mice", "conditions": "oral 10.0 mg/kg, sixty minutes after treatment, mean ± SEM, six animals", "procedure": "Normal, STZ-induced diabetic mice, and diet-induced diabetic mice were administered orally with 10.0 mg/kg borapetoside C, glibenclamide or metformin as a positive control, and a vehicle control. The plasma glucose levels of the treated mice were determined before and sixty minutes after treatment and the results thus obtained were shown in Table 3 below."}, "[4]": {"system": "Normal ICR mice", "experiment": "Intraperitoneal glucose tolerance test (IPGTT), normal ICR mice", "conditions": "borapetoside C 5.0 mg/kg", "procedure": "Normal ICR mice and DIO-induced diabetic mice, treated with borapetoside C (5.0 mg/kg), a vehicle control, or glibenclamide (positive control), were subjected to an intraperitoneal glucose tolerance test (IPGTT) as described in Lamont et al., Diabetes 2008; 57: 190-198. More specifically, glucose (2.0 mg/g body weight) was administered via IP injection to normal and DIO mice and blood samples were drawn from the treated mice before and 30, 60, 120, and 150 min after glucose administration for examination of glucose levels.\nIn normal mice treated with borapetoside C, the vehicle control, and glibenclamide, the basal plasma glucose concentrations were 106.8±4.7 mg/dL, 114.7±4.6 mg/dL, and 104.9±3.1 mg/dL, respectively. Thirty minutes after intraperitoneal glucose injection, the plasma glucose concentration was elevated to 346.2±14.7 mg/dL in vehicle-treated mice, to 292.9±10.9 mg/dL in borapetoside C-treated mice, or to 273.4±13.6 mg/dL in glibenclamide-treated mice."}, "[5]": {"system": "normal mice", "experiment": "Insulin sensitivity: plasma glucose reduction with insulin plus borapetoside C or vehicle, normal mice", "conditions": "thirty minutes after insulin", "procedure": "The effect of borapetoside C on insulin sensitivity was tested following the method described in Liu, et al., Clinical and Experimental Pharmacology and Physiology 2005; 32: 649-654. Normal mice (n=6), STZ-induced diabetic mice (n=5), and DIO-induced diabetic mice (n=7) were treated with insulin at various doses (i.e., 0.1 IU/kg, 0.5 IU/kg, and 1.0 IU/kg) together with either borapetoside C (0.1 mg/kg) or a vehicle control. Their plasma glucose levels were examined before and thirty minutes after insulin administration. The activity of lowering plasma glucose levels (AL) was calculated following the formula described in Example 2 above."}, "[6]": {"system": "DIO-induced diabetic mice", "experiment": "Lowering plasma glucose level, intraperitoneal injection, diet-induced obesity diabetic mice (type II diabetes model)", "conditions": "for plasma glucose level one hour after treatment: basal (untreated) 174.6±7.7 mg/dL", "procedure": "Normal and diet-induced obesity diabetic mice (“DIO-induced diabetic mice) were administered with borapetoside A (5.0 mg/kg), borapetoside C (5.0 mg/kg), glibenclamide (5.0 mg/kg), metformin (500.0 mg/kg), or a vehicle control via intraperitoneal injection. DIO-induced diabetic mice are a well-known mouse model of type II diabetes (non-insulin dependent). See Liu et al., J Mol. Endocrinol. 2008.\nThe plasma glucose levels of the treated mice were determined before and one hour after administration. The activities of these compounds for lowering plasma glucose levels were calculated as described above.\nBorapetoside C was administered to DIO-induced diabetic mice at 0.1, 1.0, 3.0, and 5.0 mg/kg and the plasma glucose levels were examined before and after administration. The basal plasma glucose concentration in diet-induced diabetic mice (untreated) was 174.6±7.7 mg/dL. One hour after treatment, the plasma glucose levels in mice treated with vehicle control, 0.1 mg/kg borapetoside C, 1.0 mg/kg borapetoside C, 3.0 mg/kg borapetoside C, and 5.0 mg/kg borapetoside C were 172.5±10.9 mg/dL, 170.5±6.8 mg/dL, 127.9±6.0 mg/dL, 121.3±4.3 mg/dL and 119.9±4.6 mg/dL, respectively."}}, "data": [{"compound": "COC(=O)C1=CCC[C@H]2[C@]3(C)C[C@@H](c4ccoc4)OC(=O)[C@@H]3C[C@@H](O[C@@H]3O[C@H](CO)[C@@H](O)[C@H](O)[C@H]3O)[C@@]12C", "note": "[borapetoside C]", "values": [{"measurement": "Plasma insulin, Pre-treatment", "setting": "[1]; 0.1 mg/kg i.p.", "value": "110.3 ± 4.5", "unit": "pmol/L"}, {"measurement": "Plasma insulin, post-treatment", "setting": "[1]; 0.1 mg/kg i.p.", "value": "114.0 ± 7.6", "unit": "pmol/L"}, {"measurement": "Plasma insulin, Pre-treatment", "setting": "[1]; 0.5 mg/kg i.p.", "value": "116.5 ± 5.7", "unit": "pmol/L"}, {"measurement": "Plasma insulin, post-treatment", "setting": "[1]; 0.5 mg/kg i.p.", "value": "174.7 ± 4.8", "unit": "pmol/L"}, {"measurement": "Plasma insulin, Pre-treatment", "setting": "[1]; 1.0 mg/kg i.p.", "value": "111.1 ± 2.0", "unit": "pmol/L"}, {"measurement": "Plasma insulin, post-treatment", "setting": "[1]; 1.0 mg/kg i.p.", "value": "178.5 ± 14.6", "unit": "pmol/L"}, {"measurement": "Plasma insulin, Pre-treatment", "setting": "[1]; 3.0 mg/kg i.p.", "value": "113.2 ± 2.8", "unit": "pmol/L"}, {"measurement": "Plasma insulin, post-treatment", "setting": "[1]; 3.0 mg/kg i.p.", "value": "254.0 ± 23.4", "unit": "pmol/L"}, {"measurement": "Plasma insulin, Pre-treatment", "setting": "[1]; 5.0 mg/kg i.p.", "value": "107.4 ± 5.5", "unit": "pmol/L"}, {"measurement": "Plasma insulin, post-treatment", "setting": "[1]; 5.0 mg/kg i.p.", "value": "255.8 ± 15.9", "unit": "pmol/L"}, {"measurement": "Plasma insulin, Pre-treatment", "setting": "[2]; 0.1 mg/kg i.p.", "value": "54.0 ± 3.4", "unit": "pmol/L"}, {"measurement": "Plasma insulin, post-treatment", "setting": "[2]; 0.1 mg/kg i.p.", "value": "71.5 ± 5.3", "unit": "pmol/L"}, {"measurement": "Plasma insulin, Pre-treatment", "setting": "[2]; 0.5 mg/kg i.p.", "value": "52.2 ± 3.0", "unit": "pmol/L"}, {"measurement": "Plasma insulin, post-treatment", "setting": "[2]; 0.5 mg/kg i.p.", "value": "65.7 ± 9.8", "unit": "pmol/L"}, {"measurement": "Plasma insulin, Pre-treatment", "setting": "[2]; 1.0 mg/kg i.p.", "value": "58.9 ± 3.5", "unit": "pmol/L"}, {"measurement": "Plasma insulin, post-treatment", "setting": "[2]; 1.0 mg/kg i.p.", "value": "65.0 ± 6.0", "unit": "pmol/L"}, {"measurement": "Plasma insulin, Pre-treatment", "setting": "[2]; 3.0 mg/kg i.p.", "value": "52.0 ± 3.7", "unit": "pmol/L"}, {"measurement": "Plasma insulin, post-treatment", "setting": "[2]; 3.0 mg/kg i.p.", "value": "142.6 ± 29.2", "unit": "pmol/L"}, {"measurement": "Plasma insulin, Pre-treatment", "setting": "[2]; 5.0 mg/kg i.p.", "value": "56.6 ± 2.3", "unit": "pmol/L"}, {"measurement": "Plasma insulin, post-treatment", "setting": "[2]; 5.0 mg/kg i.p.", "value": "139.4 ± 25.5", "unit": "pmol/L"}, {"measurement": "Activity of lowing plasma glucose levels (%)", "setting": "[3]", "value": "28.2 ± 3.1", "unit": "%"}, {"measurement": "basal plasma glucose concentration (IPGTT)", "setting": "[4]; before glucose injection", "value": "106.8 ± 4.7", "unit": "mg/dL"}, {"measurement": "plasma glucose levels at 60 min, 120 min, and 150 min versus control mice (IPGTT)", "setting": "[4]; glucose 2.0 mg/g IP", "value": "significantly lower"}, {"measurement": "plasma glucose concentration thirty minutes after intraperitoneal glucose injection (IPGTT)", "setting": "[4]; glucose 2.0 mg/g body weight IP, vehicle 346.2±14.7", "value": "292.9 ± 10.9", "unit": "mg/dL"}, {"measurement": "AL (%)", "setting": "[5]; Borapetoside C 0.1 mg/kg together with Insulin 0.1 IU/kg", "value": "17.2 ± 1.2", "unit": "%"}, {"measurement": "AL (%)", "setting": "[5]; Borapetoside C 0.1 mg/kg together with Insulin 0.5 IU/kg", "value": "45.7 ± 3.7", "unit": "%"}, {"measurement": "AL (%)", "setting": "[5]; Borapetoside C 0.1 mg/kg together with Insulin 1.0 IU/kg", "value": "64.7 ± 1.8", "unit": "%"}, {"measurement": "plasma glucose level one hour after treatment", "setting": "[6]; 0.1 mg/kg", "value": "170.5 ± 6.8", "unit": "mg/dL"}, {"measurement": "plasma glucose level one hour after treatment", "setting": "[6]; 1.0 mg/kg", "value": "127.9 ± 6.0", "unit": "mg/dL"}, {"measurement": "plasma glucose level one hour after treatment", "setting": "[6]; 3.0 mg/kg", "value": "121.3 ± 4.3", "unit": "mg/dL"}, {"measurement": "AL (activity of lowering plasma glucose levels)", "setting": "[6]; 5.0 mg/kg intraperitoneal injection, one hour after administration", "value": "29.4±1.0", "unit": "%"}, {"measurement": "plasma glucose level one hour after treatment", "setting": "[6]; 5.0 mg/kg", "value": "119.9 ± 4.6", "unit": "mg/dL"}]}]}
